Several values for one entry are separate records, joined by “and”; a condition that tells them apart may be missing. Equal values may be shown once.

This note sets out measurements from article PMC8474119, “Discovery and SAR Evolution of Pyrazole Azabicyclo[3.2.1]octane Sulfonamides as a Novel Class of Non-Covalent N-Acylethanolamine-Hydrolyzing Acid Amidase (NAAA) Inhibitors for Oral Administration” (Journal of Medicinal Chemistry, 2021).

The target in this test is T1, h-NAAA (Homo sapiens, UniProt Q02083).
T1 construct: made in house; host or cells: HEK-293 cells stably overexpressing human NAAA; enzyme-enriched (lysosomal) lysate
T1 sequence (Q02083 29-125 limits assumed): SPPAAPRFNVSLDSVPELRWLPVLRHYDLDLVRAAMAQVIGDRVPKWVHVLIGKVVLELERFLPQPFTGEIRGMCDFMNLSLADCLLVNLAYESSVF
T1 sequence (Q02083 126-359 limits assumed): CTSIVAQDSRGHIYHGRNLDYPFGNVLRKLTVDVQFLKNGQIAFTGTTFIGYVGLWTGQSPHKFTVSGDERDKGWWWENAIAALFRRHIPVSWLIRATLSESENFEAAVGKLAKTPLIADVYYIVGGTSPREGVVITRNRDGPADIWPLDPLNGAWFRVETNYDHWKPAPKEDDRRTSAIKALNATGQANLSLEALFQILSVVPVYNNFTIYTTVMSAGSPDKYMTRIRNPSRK
The test is described as follows: Fluorogenic human-NAAA assay (h-NAAA, fluo.). The settings on record: for IC50: mean ± SD (n ≥ 3), n.a.: not active @50 μM (<10% inhibition). Type of test: biochemical. As to the method:
Human recombinant proteins were obtained from HEK-293 stable overexpressing human NAAA, AC, and FAAH-1 cell lines, respectively. Cells were grown in Dulbecco’s modified Eagle medium (DMEM) containing 10% FBS, 1% glutamine, 1 mM sodium pyruvate, and 500 μg/mL geneticin (G418). To obtain a high-density cell proliferation, h-NAAA-HEK-293 cells were grown in BelloCell-500 bottle, a compact bioreactor. On the contrary, h-AC and h-FAAH-1-HEK-293 cells were grown in 150 mm dishes and scraped off with cold PBS 1× pH 7.4 at 80% confluence. Cell pellets were collected and stored at −80 °C until protein preparation.
HEK-293 cells stably transfected with the human NAAA or human AC coding sequences were used as the enzyme source. Cells were suspended in 20 mM Tris-HCl (pH 7.4) with 0.32 M sucrose, sonicated, and centrifuged at 800g for 30 min at 4 °C. Supernatants were then centrifuged at 12,000g for 30 min at 4 °C. Pellets were resuspended in PBS buffer (pH 7.4) and subjected to three freeze-thaw cycles at −80 °C. The suspension was finally centrifuged at 105,000g for 1 h at 4 °C, supernatants were collected, protein concentration was measured, and samples were aliquoted and stored at −80 °C until use.
The assay was run in 96-well microplates (Black OptiPlate-96 F; PerkinElmer, Massachusetts, USA), in a total reaction volume of 200 μL. h-NAAA protein preparation (4 μg) was preincubated for 30 min with various concentrations of test compounds or vehicle control (DMSO 5%) in 100 mM citrate/phosphate buffer (pH 4.5) containing 3.0 mM DTT, 0.1% NP40, 0.05% BSA, and 150 mM NaCl. The background (no activity) samples were prepared using assay buffer without h-NAAA and DMSO (5%). N-(4-methyl-2-oxo-chromen-7-yl)-hexadecanamide (PAMCA)[60] was used as a substrate (2 μM) and the reaction was carried out for 50 min at 37 °C. Fluorescence was measured with EnVision 2014 Multilabel Reader (PerkinElmer, Massachusetts, USA) using an excitation wavelength of 355 nm and an emission of 460 nm. IC50 values were calculated by non-linear regression analysis of log[concentration]/response curves generated with mean replicate values using a four-parameter Hill equation curve fitting with GraphPad Prism 5 (GraphPad Software Inc., CA, USA).

What is called pIC50 is the negative decadic logarithm of the IC50, by convention in mol/L. A low value points to a high IC50. A word on the IC50: it is the concentration needed to halve the response being measured. High values mean weaker potency, low ones greater potency. Turning to `Cc1n[nH]c(C)c1S(=O)(=O)N1CCC(Oc2cnccn2)CC1` [Compound 1, 2-((1-((3,5-Dimethyl-1H-pyrazol-4-yl)sulfonyl)piperidin-4-yl)oxy)pyrazine], where the note is “LipE = pIC50 – c Log P (h-NAAA)”, the LipE amounted to 6.3. Where the note is “Table S1, h-NAAA (fluo.)”, this molecule returned a pIC50 of 5.96. The molecule further showed an IC50 (h-NAAA (fluo.)) of 1090 ± 163 nM. With `Cc1n[nH]cc1S(=O)(=O)N1CCC(Oc2cnccn2)CC1` [Compound 2, 2-((1-((3-Methyl-1H-pyrazol-4-yl)sulfonyl)piperidin-4-yl)oxy)pyrazine], the “h-NAAA inhibitory activity, in words” value (h-NAAA (fluo.)) was “devoid of any activity”. On the same count and under the same terms, for `O=S(=O)(c1cn[nH]c1)N1CCC(Oc2cnccn2)CC1` [Compound 3, 2-((1-((1H-Pyrazol-4-yl)sulfonyl)piperidin-4-yl)oxy)pyrazine] the value was “devoid of any activity”; for `Cc1nn(C)c(C)c1S(=O)(=O)N1CCC(Oc2cnccn2)CC1` [Compound 4, 2-((1-((1,3,5-Trimethyl-1H-pyrazol-4-yl)sulfonyl)piperidin-4-yl)oxy)pyrazine], “complete loss of inhibitory effect”. Turning to `Cc1noc(C)c1S(=O)(=O)N1CCC(Oc2cnccn2)CC1` [Compound 5, 3,5-Dimethyl-4-((4-(pyrazin-2-yloxy)piperidin-1-yl)sulfonyl)isoxazole], the “h-NAAA inhibitory activity, in words” value (h-NAAA (fluo.)) is given as “complete loss of inhibitory effect”. On the same count and under the same terms, for `Cc1cnn(C)c1S(=O)(=O)N1CCC(Oc2cnccn2)CC1` [Compound 6, 2-((1-((1,4-Dimethyl-1H-pyrazol-5-yl)sulfonyl)piperidin-4-yl)oxy)pyrazine] the value was “complete loss of inhibitory effect”.

The molecule `Cc1cccc(C)c1S(=O)(=O)N1CCC(Oc2cnccn2)CC1` [Compound 7, 2-((1-((2,6-Dimethylphenyl)sulfonyl)piperidin-4-yl)oxy)pyrazine] gave an IC50 (h-NAAA (fluo.)) of 4480 ± 940 nM.

Take `CCc1n[nH]c(C)c1S(=O)(=O)N1CCC(Oc2cnccn2)CC1` [Compound 8, 2-((1-((3-Ethyl-5-methyl-1H-pyrazol-4-yl)sulfonyl)piperidin-4-yl)oxy)pyrazine]: where the note is “h-NAAA (fluo.)”, the IC50 came out at 620 ± 120 nM.

In the case of `CCCc1n[nH]c(C)c1S(=O)(=O)N1CCC(Oc2cnccn2)CC1` [Compound 9, 2-((1-((5-Methyl-3-propyl-1H-pyrazol-4-yl)sulfonyl)piperidin-4-yl)oxy)pyrazine], the IC50 (h-NAAA (fluo.)) came to 330 ± 40 nM. On the same count and under the same terms, for `CCCCc1n[nH]c(C)c1S(=O)(=O)N1CCC(Oc2cnccn2)CC1` [Compound 10, 2-((1-((3-Butyl-5-methyl-1H-pyrazol-4-yl)sulfonyl)piperidin-4-yl)oxy)pyrazine] the value was 910 ± 130 nM. On the same count and under the same terms, in the case of `Cc1[nH]nc(C(C)C)c1S(=O)(=O)N1CCC(Oc2cnccn2)CC1` [Compound 11, 2-((1-((3-isoPropyl-5-methyl-1H-pyrazol-4-yl)sulfonyl)piperidin-4-yl)oxy)pyrazine] it was 640 ± 140 nM; in that of `Cc1[nH]nc(C(C)(C)C)c1S(=O)(=O)N1CCC(Oc2cnccn2)CC1` [Compound 12, 2-((1-((3-(tert-Butyl)-5-methyl-1H-pyrazol-4-yl)sulfonyl)piperidin-4-yl)oxy)pyrazine], 780 ± 120 nM. With `COc1n[nH]c(C)c1S(=O)(=O)N1CCC(Oc2cnccn2)CC1` [Compound 13, 2-((1-((3-Methoxy-5-methyl-1H-pyrazol-4-yl)sulfonyl)piperidin-4-yl)oxy)pyrazine], the “h-NAAA inhibitory activity, in words” value (h-NAAA (fluo.)) is “no detectable activity”.

In turn, `Cc1[nH]nc(C(F)(F)F)c1S(=O)(=O)N1CCC(Oc2cnccn2)CC1` [Compound 14, 2-((1-((5-Methyl-3-(trifluoromethyl)-1H-pyrazol-4-yl)sulfonyl)piperidin-4-yl)oxy)pyrazine] showed an IC50 (h-NAAA (fluo.)) of 3290 ± 230 nM.

As to `CCc1n[nH]c(CC)c1S(=O)(=O)N1CCC(Oc2cnccn2)CC1` [Compound 15, 2-((1-((3,5-Diethyl-1H-pyrazol-4-yl)sulfonyl)piperidin-4-yl)oxy)pyrazine], the IC50 (h-NAAA (fluo.)) was found to be 1110 ± 310 nM. With `Cc1n[nH]c(C)c1C(=O)N1CCC(Oc2cnccn2)CC1` [Compound 16, (3,5-Dimethyl-1H-pyrazol-4-yl)(4-(pyrazin-2-yloxy)piperidin-1-yl)methanone], under “h-NAAA (fluo.)”, the “h-NAAA inhibitory activity, in words” value is “complete loss of activity”.

Take `Cc1n[nH]c(C)c1S(=O)(=O)N1CC(Oc2cnccn2)C1` [Compound 18, 2-((1-((3,5-Dimethyl-1H-pyrazol-4-yl)sulfonyl)azetidin-3-yl)oxy)pyrazine]: for the setting “h-NAAA (fluo.)”, the “h-NAAA inhibitory activity, in words” value is listed as “complete loss of enzyme inhibition”.

Where the note is “h-NAAA (fluo.)”, `Cc1n[nH]c(C)c1S(=O)(=O)N(C)CCCOc1cnccn1` [Compound 19, N,3,5-Trimethyl-N-(3-(pyrazin-2-yloxy)propyl)-1H-pyrazole-4-Sulfonamide] registered an IC50 of 4290 ± 970 nM. Still for that read-out and setting: in the case of `Cc1n[nH]c(C)c1S(=O)(=O)N1[C@@H]2CC[C@H]1C[C@@H](Oc1cnccn1)C2` [Compound 20, (1R,3r,5S)-8-((3,5-Dimethyl-1H-pyrazol-4-yl)sulfonyl)-3-(pyrazin-2-yloxy)-8-azabicyclo[3.2.1]octane] it was 230 ± 10 nM. Regarding `Cc1n[nH]c(C)c1S(=O)(=O)N1[C@@H]2CC[C@H]1C[C@H](Oc1cnccn1)C2` [Compound 21, (1R,3s,5S)-8-((3,5-Dimethyl-1H-pyrazol-4-yl)sulfonyl)-3-(pyrazin-2-yloxy)-8-azabicyclo[3.2.1]octane], the “h-NAAA inhibitory activity, in words” value (h-NAAA (fluo.)) is “devoid of any activity”. Same read-out and setting: for `Cc1n[nH]c(C)c1S(=O)(=O)N1CCC(Nc2cnccn2)CC1` [Compound 22, N-(1-((3,5-Dimethyl-1H-pyrazol-4-yl)sulfonyl)piperidin-4-yl)pyrazin-2-amine] the value was “abolished the inhibitory activity”; for `Cc1n[nH]c(C)c1S(=O)(=O)N1CCC(Cc2cnccn2)CC1` [Compound 23, 2-((1-((3,5-Dimethyl-1H-pyrazol-4-yl)sulfonyl)piperidin-4-yl)methyl)pyrazine], “abolished the inhibitory activity”. Same read-out and setting: in the case of `Cc1n[nH]c(C)c1S(=O)(=O)N1CCC(c2cnccn2)CC1` [Compound 24, 2-(1-((3,5-Dimethyl-1H-pyrazol-4-yl)sulfonyl)piperidin-4-yl)pyrazine] it was “abolished the inhibitory activity”. Turning to `Cc1n[nH]c(C)c1S(=O)(=O)N1[C@@H]2CCC[C@H]1C[C@@H](Oc1cnccn1)C2` [Compound 25, (1R,3r,5S)-9-((3,5-Dimethyl-1H-pyrazol-4-yl)sulfonyl)-3-(pyrazin-2-yloxy)-9-azabicyclo[3.3.1]nonane], the IC50 (h-NAAA (fluo.)) amounted to 370 ± 30 nM.

Molecule `Cc1n[nH]c(C)c1S(=O)(=O)N1[C@@H]2COC[C@H]1C[C@@H](Oc1cnccn1)C2` [Compound 26, (1R,5S,7s)-9-((3,5-Dimethyl-1H-pyrazol-4-yl)sulfonyl)-7-(pyrazin-2-yloxy)-3-oxa-9-azabicyclo[3.3.1]nonane] had an IC50 (h-NAAA (fluo.)) of 2330 ± 830 nM. On the same count and under the same terms, in the case of `Cc1n[nH]c(C)c1S(=O)(=O)N1C[C@H]2CC[C@@H](C1)[C@H]2Oc1cnccn1` [Compound 27, (1R,5S,8r)-3-((3,5-Dimethyl-1H-pyrazol-4-yl)sulfonyl)-8-(pyrazin-2-yloxy)-3-azabicyclo[3.2.1]octane] it was 15400 ± 3260 nM. For the molecule `Cc1n[nH]c(C)c1S(=O)(=O)N1C[C@H]2CCC[C@@H](C1)[C@H]2Oc1cnccn1` [Compound 28, (1R,5S,9r)-3-((3,5-Dimethyl-1H-pyrazol-4-yl)sulfonyl)-9-(pyrazin-2-yloxy)-3-azabicyclo[3.3.1]nonane], under “h-NAAA (fluo.)”, the “h-NAAA inhibitory activity, in words” value was “inactive”. Under “h-NAAA (fluo.)”, `Cc1n[nH]c(C)c1S(=O)(=O)N1C[C@H]2CCC[C@@H](C1)[C@@H]2Oc1cnccn1` [Compound 29, (1R,5S,9s)-3-((3,5-Dimethyl-1H-pyrazol-4-yl)sulfonyl)-9-(pyrazin-2-yloxy)-3-azabicyclo[3.3.1]nonane] showed an IC50 of 690 ± 60 nM. The same measure, in the same setting: in the case of `Cc1n[nH]c(C)c1S(=O)(=O)N1[C@@H]2CC[C@H]1C[C@@H](Oc1ccccn1)C2` [Compound 30, (1R,3r,5S)-8-((3,5-Dimethyl-1H-pyrazol-4-yl)sulfonyl)-3-(pyridin-2-yloxy)-8-azabicyclo[3.2.1]octane] it was 160 nM and 162 nM.
